The NIST ThermoML archive (doi:10.1016/j.jct.2016.06.004)
Numbers after ± are expanded uncertainties.

Columns and labels:
[1] = xn = mol fraction of the nth substance listed; conditions: Ring tensiometer
[2] = Ring tensiometer

`C[S+](C)[O-]` [dimethyl sulfoxide] + CO gave a surface tension liquid-gas ([1]; 298.15 K, x2 = 0) of 42.43 ± 0.74 mN/m, a surface tension liquid-gas ([1]; 298.15 K, x2 = 0.077) of 41.31 ± 0.73 mN/m and a surface tension liquid-gas ([1]; 298.15 K, x2 = 0.154) of 40.03 ± 0.71 mN/m. It also gave a surface tension liquid-gas ([1]; 298.15 K, x2 = 0.231) of 38.59 ± 0.69 mN/m, a surface tension liquid-gas ([1]; 298.15 K, x2 = 0.308) of 37.1 ± 0.66 mN/m and a surface tension liquid-gas ([1]; 298.15 K, x2 = 0.384) of 35.6 ± 0.64 mN/m. It also gave a surface tension liquid-gas ([1]; 298.15 K, x2 = 0.462) of 34.07 ± 0.62 mN/m, a surface tension liquid-gas ([1]; 298.15 K, x2 = 0.538) of 32.46 ± 0.59 mN/m and a surface tension liquid-gas ([1]; 298.15 K, x2 = 0.615) of 30.84 ± 0.57 mN/m. The surface tension liquid-gas ([1]; 298.15 K, x2 = 0.693) was 29.2 ± 0.54 mN/m, the surface tension liquid-gas ([1]; 298.15 K, x2 = 0.769) was 27.5 ± 0.52 mN/m and the surface tension liquid-gas ([1]; 298.15 K, x2 = 0.846) was 25.77 ± 0.49 mN/m. It also gave a surface tension liquid-gas ([1]; 298.15 K, x2 = 0.9) of 24.56 ± 0.47 mN/m, a surface tension liquid-gas ([1]; 308.15 K, x2 = 0) of 41.3 ± 0.73 mN/m and a surface tension liquid-gas ([1]; 308.15 K, x2 = 0.077) of 40.2 ± 0.71 mN/m. It also gave a surface tension liquid-gas ([1]; 308.15 K, x2 = 0.154) of 38.95 ± 0.69 mN/m, a surface tension liquid-gas ([1]; 308.15 K, x2 = 0.231) of 37.54 ± 0.67 mN/m and a surface tension liquid-gas ([1]; 308.15 K, x2 = 0.308) of 36.16 ± 0.65 mN/m. It also gave a surface tension liquid-gas ([1]; 308.15 K, x2 = 0.384) of 34.69 ± 0.63 mN/m, a surface tension liquid-gas ([1]; 308.15 K, x2 = 0.462) of 33.18 ± 0.6 mN/m and a surface tension liquid-gas ([1]; 308.15 K, x2 = 0.538) of 31.62 ± 0.58 mN/m. It also gave a surface tension liquid-gas ([1]; 308.15 K, x2 = 0.615) of 30.03 ± 0.56 mN/m, a surface tension liquid-gas ([1]; 308.15 K, x2 = 0.693) of 28.38 ± 0.53 mN/m and a surface tension liquid-gas ([1]; 308.15 K, x2 = 0.769) of 26.69 ± 0.51 mN/m. For the same molecule, the surface tension liquid-gas ([1]; 308.15 K, x2 = 0.846) was 24.89 ± 0.48 mN/m, the surface tension liquid-gas ([1]; 308.15 K, x2 = 0.9) was 23.67 ± 0.46 mN/m and the surface tension liquid-gas ([1]; 318.15 K, x2 = 0) was 40.17 ± 0.71 mN/m. It also gave a surface tension liquid-gas ([1]; 318.15 K, x2 = 0.077) of 39.15 ± 0.69 mN/m, a surface tension liquid-gas ([1]; 318.15 K, x2 = 0.154) of 37.91 ± 0.68 mN/m and a surface tension liquid-gas ([1]; 318.15 K, x2 = 0.231) of 36.58 ± 0.66 mN/m. It also gave a surface tension liquid-gas ([1]; 318.15 K, x2 = 0.308) of 35.2 ± 0.64 mN/m, a surface tension liquid-gas ([1]; 318.15 K, x2 = 0.384) of 33.78 ± 0.61 mN/m and a surface tension liquid-gas ([1]; 318.15 K, x2 = 0.462) of 32.31 ± 0.59 mN/m. For the same molecule, the surface tension liquid-gas ([1]; 318.15 K, x2 = 0.538) was 30.79 ± 0.57 mN/m, the surface tension liquid-gas ([1]; 318.15 K, x2 = 0.615) was 29.22 ± 0.54 mN/m and the surface tension liquid-gas ([1]; 318.15 K, x2 = 0.693) was 27.56 ± 0.52 mN/m. It also gave a surface tension liquid-gas ([1]; 318.15 K, x2 = 0.769) of 25.84 ± 0.49 mN/m, a surface tension liquid-gas ([1]; 318.15 K, x2 = 0.846) of 24.2 ± 0.47 mN/m and a surface tension liquid-gas ([1]; 318.15 K, x2 = 0.9) of 22.88 ± 0.45 mN/m. It also gave a surface tension liquid-gas ([1]; 328.15 K, x2 = 0) of 39.08 ± 0.69 mN/m, a surface tension liquid-gas ([1]; 328.15 K, x2 = 0.077) of 38.06 ± 0.68 mN/m and a surface tension liquid-gas ([1]; 328.15 K, x2 = 0.154) of 36.84 ± 0.66 mN/m. The surface tension liquid-gas ([1]; 328.15 K, x2 = 0.231) was 35.55 ± 0.64 mN/m, the surface tension liquid-gas ([1]; 328.15 K, x2 = 0.308) was 34.25 ± 0.62 mN/m and the surface tension liquid-gas ([1]; 328.15 K, x2 = 0.384) was 32.84 ± 0.6 mN/m. The surface tension liquid-gas ([1]; 328.15 K, x2 = 0.462) was 31.45 ± 0.58 mN/m, the surface tension liquid-gas ([1]; 328.15 K, x2 = 0.538) was 29.96 ± 0.56 mN/m and the surface tension liquid-gas ([1]; 328.15 K, x2 = 0.615) was 28.41 ± 0.53 mN/m. It also gave a surface tension liquid-gas ([1]; 328.15 K, x2 = 0.693) of 26.79 ± 0.51 mN/m, a surface tension liquid-gas ([1]; 328.15 K, x2 = 0.769) of 24.96 ± 0.48 mN/m and a surface tension liquid-gas ([1]; 328.15 K, x2 = 0.846) of 23.31 ± 0.46 mN/m. For the same molecule, the surface tension liquid-gas ([1]; 328.15 K, x2 = 0.9) was 21.94 ± 0.43 mN/m.
For `CCO` [ethanol], the surface tension liquid-gas ([2]; 298.15 K) was 21.66 ± 0.43 mN/m, the surface tension liquid-gas ([2]; 308.15 K) was 21.01 ± 0.42 mN/m and the surface tension liquid-gas ([2]; 318.15 K) was 20.19 ± 0.4 mN/m. For the same molecule, the surface tension liquid-gas ([2]; 328.15 K) was 19.23 ± 0.39 mN/m.
For `CCO` [ethanol] + C[S+](C)[O-], the surface tension liquid-gas ([1]; 298.15 K, x1 = 1) was 21.66 ± 0.43 mN/m, the surface tension liquid-gas ([1]; 308.15 K, x1 = 1) was 21.01 ± 0.42 mN/m and the surface tension liquid-gas ([1]; 318.15 K, x1 = 1) was 20.19 ± 0.4 mN/m. For the same molecule, the surface tension liquid-gas ([1]; 328.15 K, x1 = 1) was 19.23 ± 0.39 mN/m.
Molecule `CO` [methanol] has a surface tension liquid-gas ([2]; 298.15 K) of 22.24 ± 0.44 mN/m, a surface tension liquid-gas ([2]; 308.15 K) of 21.41 ± 0.42 mN/m and a surface tension liquid-gas ([2]; 318.15 K) of 20.53 ± 0.41 mN/m. It also gave a surface tension liquid-gas ([2]; 328.15 K) of 19.54 ± 0.4 mN/m.
For `CO` [methanol] + C[S+](C)[O-], the surface tension liquid-gas ([1]; 298.15 K, x1 = 1) was 22.24 ± 0.44 mN/m, the surface tension liquid-gas ([1]; 308.15 K, x1 = 1) was 21.41 ± 0.42 mN/m and the surface tension liquid-gas ([1]; 318.15 K, x1 = 1) was 20.53 ± 0.41 mN/m. For the same molecule, the surface tension liquid-gas ([1]; 328.15 K, x1 = 1) was 19.54 ± 0.4 mN/m.
With `CC(C)O` [propan-2-ol] the surface tension liquid-gas ([2]; 298.15 K) was 21.15 ± 0.43 mN/m, the surface tension liquid-gas ([2]; 308.15 K) was 20.29 ± 0.42 mN/m and the surface tension liquid-gas ([2]; 318.15 K) was 19.53 ± 0.4 mN/m. For the same molecule, the surface tension liquid-gas ([2]; 328.15 K) was 18.51 ± 0.39 mN/m.
In the case of `CC(C)O` [propan-2-ol] + C[S+](C)[O-], the surface tension liquid-gas ([1]; 298.15 K, x1 = 1) is reported as 21.15 ± 0.43 mN/m, the surface tension liquid-gas ([1]; 308.15 K, x1 = 1) is reported as 20.29 ± 0.42 mN/m and the surface tension liquid-gas ([1]; 318.15 K, x1 = 1) is reported as 19.53 ± 0.4 mN/m. The surface tension liquid-gas ([1]; 328.15 K, x1 = 1) was 18.51 ± 0.39 mN/m.
`O` [water] gave a surface tension liquid-gas ([2]; 298.15 K) of 72.05 ± 1.2 mN/m.
